# Key:
# [1] = system: Salmonella typhi (ATCC 19430); assay: Antibacterial MIC, microplate dilution with tetrazolium violet; type: cell-based; details: compounds in DMSO serially diluted with sterile water in microplates, overnight, 37 °C, 100% relative humidity, tetrazolium violet read-out
# Experimental: (§1) All compounds were screened for antibacterial activity against Escherchia coli (ATCC 25922), Bacillus subtilis (ATCC 6633), Shigella flexeneri (clinical isolate), Staphylococcus aureus (ATCC 25923), Pseudomonas aeruginosa (ATCC 27853), and Salmonella typhi (ATCC 19430), according to the method as reported previously. The disc diffusion technique was used to determine the antibacterial activity of the test compounds. The compounds were dissolved in DMSO to obtain a 10 mg/mL solution. A known volume ([…]) of the solution was applied on to the sterilized filter paper discs with the help of a micropipette. The discs were dried at room temperature overnight and stored in sterile dry containers. Discs, soaked with […] of DMSO, and air dried at room temperature, were used as negative control. Bacterial cultures were grown in a nutrient broth medium at 37 °C overnight and spread on to solidified nutrient agar medium in Petri plates using sterilized cotton swabs in a standard microbiological working environment. Test and control discs were then applied to the solidified medium surface with the help of sterilized forceps. The plates were incubated at 37 °C for 12–15 h. The results were recorded by measuring the zone of inhibition in mm against each compound. Impenem was used as standard drug. MIC was calculated as previously reported. Compounds were briefly dissolved in DMSO and serially diluted with sterile water in microplates in a laminar flow cabinet. The same volume of an actively rowing culture of the test bacteria was added to the different wells and cultures were grown overnight in 100% relative humidity at 37 °C. The next morning, tetrazolium violet was added to all the wells. Growth was indicated by a violet color of the culture. The lowest concentration of the test solution that led to an inhibition of growth was taken as the MIC. The negative control DMSO had no influence on the growth at the highest concentration used. Impenem was used as controls for comparison (See Table 1).
# [2] = system: Pseudomonas aeruginosa (ATCC 27853); assay: as above; type: cell-based; details: compounds in DMSO serially diluted with sterile water in microplates, overnight, 37 °C, 100% relative humidity, tetrazolium violet read-out
# Experimental: as §1
# [3] = system: Staphylococcus aureus (ATCC 25923); assay: as above; type: cell-based; details: compounds in DMSO serially diluted with sterile water in microplates, overnight, 37 °C, 100% relative humidity, tetrazolium violet read-out
# Experimental: as §1
# [4] = system: Bacillus subtilis (ATCC 6633); assay: as above; type: cell-based; details: compounds in DMSO serially diluted with sterile water in microplates, overnight, 37 °C, 100% relative humidity, tetrazolium violet read-out
# Experimental: as §1
# [5] = system: Shigella flexeneri (clinical isolate); assay: as above; type: cell-based; details: compounds in DMSO serially diluted with sterile water in microplates, overnight, 37 °C, 100% relative humidity, tetrazolium violet read-out
# Experimental: as §1
# [6] = system: Escherchia coli (ATCC 25922); assay: as above; type: cell-based, Escherichia coli; details: compounds in DMSO serially diluted with sterile water in microplates, overnight, 37 °C, 100% relative humidity, tetrazolium violet read-out, lowest concentration inhibiting growth
# Experimental: as §1
# [7] = system: tested bacterial pathogens; assay: Antibacterial activity, overall verdict over the panel; type: cell-based; details: verdict over the six tested bacterial pathogens of Table 2
# Experimental: as §1
Compound,"Minimum Inhibitory Concentration (MIC), Salmonella typhi [1] [µg/mL]","Minimum Inhibitory Concentration (MIC), Pseudomonas aeruginosa [2] [µg/mL]","Minimum Inhibitory Concentration (MIC), Staphylococcus aureus [3] [µg/mL]","Minimum Inhibitory Concentration (MIC), Bacillus subtilis [4] [µg/mL]","Minimum Inhibitory Concentration (MIC), Shigella flexeneri [5] [µg/mL]","Minimum Inhibitory Concentration (MIC), Escherichia coli [6] [µg/mL]",Antibacterial activity (in words) [7],"Minimum Inhibitory Concentration (MIC), Salmonella typhi ([1]; listed as Oxyphylline B (4)) [µg/mL]"
"CCC(C)C1NC(=O)C2C(CCN2C(=O)C(Cc2c[nH]c3ccccc23)N(C)C)Oc2ccc(OC)c(c2)/C=C/NC1=O (stereo not drawn) [Compound 3, nummularin-R]",50,100,50,10,100,25,low antibacterial activities,
Oxyphylline B [Compound 4],,50,25,,25,5,,50
Oxyphylline D [Compound 1],25,50,25,25,50,10,low antibacterial activities,
Oxyphylline C [Compound 5],50,50,10,50,50,10,low antibacterial activities,
nummularin-C [Compound 2],10,100,25,25,100,10,low antibacterial activities,
"C[C@@H](O)[C@H]1C(=O)N2C(C(=O)O)=C(SCCN=CN)C[C@H]12 [Standard, Impenem, reference compound]",0.0014,0.0021,0.0009,0.0005,0.0003,0.0002,,

# Reference: publication PMC3472760, “New 14-Membered Cyclopeptide Alkaloids from Zizyphus oxyphylla Edgew” (International Journal of Molecular Sciences, 2012)
